What was measured:
Type in all cases: binding
Conditions in all cases: Compound Concentration 10 µM
panel of 442 kinases [1] = target: T1, panel of 442 kinases (Homo sapiens, UniProt Q9HC98)
T1 construct: purchased KINOMEscan
From the text: (§1) We assessed the selectivity of members of this scaffold using the KINOMEscan methodology across a near comprehensive panel of 442 kinases [[18,27]].

panel of 442 kinases [2] = target: T2, panel of 442 kinases (Homo sapiens, UniProt Q15208)
T2 construct: purchased KINOMEscan
T2 sequence (Q15208 whole entry): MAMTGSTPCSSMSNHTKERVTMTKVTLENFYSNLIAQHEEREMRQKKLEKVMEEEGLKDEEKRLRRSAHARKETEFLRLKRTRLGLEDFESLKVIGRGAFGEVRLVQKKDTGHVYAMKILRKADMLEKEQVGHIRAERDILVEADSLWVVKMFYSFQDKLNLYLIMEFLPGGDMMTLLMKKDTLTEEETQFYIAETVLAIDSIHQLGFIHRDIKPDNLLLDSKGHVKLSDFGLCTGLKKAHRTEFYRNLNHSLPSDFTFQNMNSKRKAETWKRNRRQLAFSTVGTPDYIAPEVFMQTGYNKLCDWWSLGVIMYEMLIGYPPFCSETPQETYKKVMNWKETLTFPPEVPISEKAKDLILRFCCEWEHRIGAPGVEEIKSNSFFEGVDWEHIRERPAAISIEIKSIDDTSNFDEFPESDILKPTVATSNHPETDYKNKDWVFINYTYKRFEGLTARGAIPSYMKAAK
From the text: as §1

panel of 442 kinases [3] = target: T3, panel of 442 kinases (Homo sapiens, UniProt P09619)
T3 construct: purchased KINOMEscan
T3 sequence (P09619 33-1106): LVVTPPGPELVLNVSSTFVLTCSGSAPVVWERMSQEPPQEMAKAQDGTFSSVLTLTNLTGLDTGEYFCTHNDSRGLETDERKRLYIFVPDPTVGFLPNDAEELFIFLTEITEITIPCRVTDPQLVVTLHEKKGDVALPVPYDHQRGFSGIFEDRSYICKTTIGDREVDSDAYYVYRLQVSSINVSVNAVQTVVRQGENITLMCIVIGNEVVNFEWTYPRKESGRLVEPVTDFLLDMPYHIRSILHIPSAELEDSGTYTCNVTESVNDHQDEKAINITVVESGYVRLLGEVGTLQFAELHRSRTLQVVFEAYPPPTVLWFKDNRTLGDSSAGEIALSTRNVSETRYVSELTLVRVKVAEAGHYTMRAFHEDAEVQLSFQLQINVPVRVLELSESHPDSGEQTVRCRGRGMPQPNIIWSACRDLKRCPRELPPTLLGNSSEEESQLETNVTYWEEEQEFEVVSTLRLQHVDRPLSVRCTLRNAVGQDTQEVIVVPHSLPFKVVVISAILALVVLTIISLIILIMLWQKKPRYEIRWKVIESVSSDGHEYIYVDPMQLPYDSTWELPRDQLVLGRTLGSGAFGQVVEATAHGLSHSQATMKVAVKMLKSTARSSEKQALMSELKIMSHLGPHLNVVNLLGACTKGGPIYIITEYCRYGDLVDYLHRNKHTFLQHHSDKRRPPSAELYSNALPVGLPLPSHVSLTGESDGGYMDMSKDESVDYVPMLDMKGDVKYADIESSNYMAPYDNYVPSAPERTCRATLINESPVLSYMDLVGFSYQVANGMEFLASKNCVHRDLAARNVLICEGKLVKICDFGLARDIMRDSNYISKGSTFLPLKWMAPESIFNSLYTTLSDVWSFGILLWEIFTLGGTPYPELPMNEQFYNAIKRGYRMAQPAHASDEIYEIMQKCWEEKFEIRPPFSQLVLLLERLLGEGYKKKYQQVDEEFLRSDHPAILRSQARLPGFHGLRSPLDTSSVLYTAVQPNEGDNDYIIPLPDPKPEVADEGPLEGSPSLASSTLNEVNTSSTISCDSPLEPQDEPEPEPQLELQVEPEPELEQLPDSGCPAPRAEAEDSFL
From the text: as §1

panel of 442 kinases [4] = target: T4, panel of 442 kinases (Homo sapiens, UniProt Q9Y463)
T4 construct: purchased KINOMEscan
T4 sequence (Q9Y463 whole entry): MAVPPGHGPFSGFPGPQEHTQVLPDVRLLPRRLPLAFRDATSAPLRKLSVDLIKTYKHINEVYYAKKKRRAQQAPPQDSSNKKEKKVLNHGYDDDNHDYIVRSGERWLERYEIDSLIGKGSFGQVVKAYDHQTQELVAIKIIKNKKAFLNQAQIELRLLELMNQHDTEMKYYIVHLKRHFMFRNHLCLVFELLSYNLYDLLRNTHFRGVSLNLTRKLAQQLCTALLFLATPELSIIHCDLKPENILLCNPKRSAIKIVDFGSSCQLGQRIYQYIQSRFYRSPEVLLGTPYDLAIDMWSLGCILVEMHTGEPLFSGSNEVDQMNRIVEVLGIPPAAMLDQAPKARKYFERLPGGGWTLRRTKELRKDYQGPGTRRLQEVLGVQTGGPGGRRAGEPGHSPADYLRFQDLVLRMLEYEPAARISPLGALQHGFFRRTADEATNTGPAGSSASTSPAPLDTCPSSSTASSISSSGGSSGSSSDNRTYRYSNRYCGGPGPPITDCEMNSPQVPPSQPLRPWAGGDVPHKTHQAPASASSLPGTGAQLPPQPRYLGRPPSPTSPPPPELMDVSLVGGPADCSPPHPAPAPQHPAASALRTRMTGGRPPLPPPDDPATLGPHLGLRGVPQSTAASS
From the text: as §1

T1 sequence (Q9HC98 whole entry): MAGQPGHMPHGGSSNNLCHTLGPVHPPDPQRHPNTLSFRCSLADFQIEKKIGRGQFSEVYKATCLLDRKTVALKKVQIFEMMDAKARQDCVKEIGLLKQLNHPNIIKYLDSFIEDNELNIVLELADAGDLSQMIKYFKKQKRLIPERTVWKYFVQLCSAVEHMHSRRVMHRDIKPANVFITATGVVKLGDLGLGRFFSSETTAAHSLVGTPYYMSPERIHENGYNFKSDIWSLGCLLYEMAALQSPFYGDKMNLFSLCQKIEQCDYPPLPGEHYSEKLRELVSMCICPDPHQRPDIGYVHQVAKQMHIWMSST

Row | SMILES | KINOMEscan: NEK6 (panel of 442 kinases [1]) | KINOMEscan: NDR1 (panel of 442 kinases [2]) | KINOMEscan: PDGFRB (panel of 442 kinases [3]) | KINOMEscan: DYRK1B (panel of 442 kinases [4])
1 | CCOc1cc(C(=O)N2CCC(N3CCN(C)CC3)CC2)ccc1Nc1ncc2c(n1)N(C1CCCC1)c1ccccc1C(=O)N2C [Compound 26] | 100 | 100 | 100 | 71
2 | COc1cc(C(=O)N2CCC(N3CCN(C)CC3)CC2)ccc1Nc1ncc2c(n1)N(C1CCCC1)c1ccccc1C(=O)N2C [Compound 25, 11-cyclopentyl-2-((2-methoxy-4-(4-(4-methylpiperazin-1-yl)piperidine-1-carbonyl)phenyl)amino)-5-methyl-5H-benzo[e]pyrimido[5,4-b][1,4]diazepin-6(11H)-one] | 100 | 100 | 83 | 69
3 | COc1cc(C(=O)N2CCC(N3CCN(C)CC3)CC2)ccc1Nc1ncc2c(n1)N1CCc3cccc(c31)C(=O)N2C [Compound 24] | 56 | – | 67 | –
4 | COc1cc(C(=O)N2CCC(N3CCN(C)CC3)CC2)ccc1Nc1ncc2c(n1)N(C)c1ccccc1C(=O)N2C [15 (LRRK2-IN-1)] | 76 | 96 | 100 | 94

From publication PMC3914206
